Measurements as given in patent publication US12077503B2, “Substituted cyclic amides and their use as herbicides” (FMC CORPORATION, priority 2015, dated 2024).

Assays:
Type in all cases: in vivo
[1] = test system: barnyardgrass (Echinochloa crus-galli); assay: Test G Post-Emergence Protocol; conditions: Echinochloa crus-galli, post-emergence, 312 h
Summary of the method: (§1)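 Foliar application was made 8 days after sowing, using an aqueous spray of the active in acetone/water (50:50) with 0.5% Tween 20, at doses of 15.625, 62.5 or 250 g/ha. Injury was assessed 13 days later, where 100 meant the plant was fully damaged.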

corn (Zea mays) [2] = assay: Test G Post-Emergence Protocol; conditions: Zea mays, post-emergence, 312 h
Summary of the method: as §1

[3] = test system: giant foxtail (Setaria faberi); assay: Test G Post-Emergence Protocol; conditions: Setaria faberi, post-emergence, 312 h
Summary of the method: as §1

[4] = test system: ivy-leaved morning glory (Ipomoea hederacea); assay: Test G Post-Emergence Protocol; conditions: Ipomoea, post-emergence, 312 h
Summary of the method: as §1

[5] = test system: redroot pigweed (Amaranthus retroflexus); assay: Test G Post-Emergence Protocol; conditions: Amaranthus retroflexus, post-emergence, 312 h
Summary of the method: as §1

[6] = test system: velvetleaf (Abutilon theophrasti); assay: Test G Post-Emergence Protocol; conditions: Abutilon theophrasti, post-emergence, 312 h
Summary of the method: as §1

corn (Zea mays) [7] = assay: Test A preemergence; conditions: Zea mays, pre-emergence, 240 h, 0 to 100 scale (0 no effect, 100 complete control); for Corn plant response rating (crop injury, 0 = no effect, 100 = complete kill) at 500 g/ha: 500 g ai/ha, preemergence; for Corn plant response rating (crop injury, 0 = no effect, 100 = complete kill) at 125 g/ha: Preemergence, 125 g ai/ha
Summary of the method: (§2)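 Treatment is preemergence as a directed soil spray after planting, or postemergence at the one- to two-leaf stage, with test chemical in a non-phytotoxic solvent mixture plus surfactant. Plants stay in the greenhouse about 10 d before visual injury scoring on a 0 to 100 scale versus untreated controls.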

[8] = test system: crabgrass, large (Digitaria sanguinalis); assay: Test A preemergence; conditions: Digitaria sanguinalis, pre-emergence, 240 h, 0 to 100 scale (0 no effect, 100 complete control), read-out: Plant response rating, Crabgrass, Large; for pest or weed control at 500 g/ha: 500 g ai/ha, preemergence; for pest or weed control at 125 g/ha: Preemergence, 125 g ai/ha
Summary of the method: as §2

[9] = test system: morningglory (Ipomoea spp.); assay: Test A preemergence; conditions: Ipomoea, pre-emergence, 240 h, 0 to 100 scale (0 no effect, 100 complete control), read-out: Plant response rating, Morningglory; for pest or weed control at 500 g/ha: 500 g ai/ha, preemergence; for pest or weed control at 125 g/ha: Preemergence, 125 g ai/ha
Summary of the method: as §2

[10] = test system: velvetleaf (Abutilon theophrasti); assay: Test A preemergence; conditions: Abutilon theophrasti, pre-emergence, 240 h, 0 to 100 scale (0 no effect, 100 complete control), read-out: Plant response rating, Velvetleaf; for pest or weed control at 500 g/ha: 500 g ai/ha, preemergence; for pest or weed control at 125 g/ha: Preemergence, 125 g ai/ha
Summary of the method: as §2

[11] = test system: wheat (Triticum aestivum); assay: Test A preemergence; conditions: Triticum aestivum, pre-emergence, 240 h, 0 to 100 scale (0 no effect, 100 complete control), read-out: Plant response rating, Wheat; for plant injury at 500 g/ha: 500 g ai/ha, preemergence; for plant injury at 125 g/ha: Preemergence, 125 g ai/ha
Summary of the method: as §2

[12] = test system: crabgrass, large (Digitaria sanguinalis); assay: Test A postemergence; conditions: Digitaria sanguinalis, post-emergence, 240 h, Postemergence; for pest or weed control at 125 g/ha: 125 g ai/ha, visual rating about 10 d after treatment, read-out: Crabgrass, Large plant response rating (0 to 100 scale); for pest or weed control at 500 g/ha: 500 g ai/ha, visual injury, 0 to 100 scale (0 no effect, 100 complete control), approx. 10 d, read-out: Plant response rating, Crabgrass, Large
Summary of the method: as §2

[13] = test system: morningglory (Ipomoea spp.); assay: Test A postemergence; conditions: Ipomoea, post-emergence, 240 h, Postemergence; for pest or weed control at 125 g/ha: 125 g ai/ha, visual rating about 10 d after treatment, read-out: Morningglory plant response rating (0 to 100 scale); for pest or weed control at 500 g/ha: 500 g ai/ha, visual injury, 0 to 100 scale (0 no effect, 100 complete control), approx. 10 d, read-out: Plant response rating, Morningglory
Summary of the method: as §2

[14] = test system: velvetleaf (Abutilon theophrasti); assay: Test A postemergence; conditions: Abutilon theophrasti, post-emergence, 240 h, Postemergence; for pest or weed control at 125 g/ha: 125 g ai/ha, visual rating about 10 d after treatment, read-out: Velvetleaf plant response rating (0 to 100 scale); for pest or weed control at 500 g/ha: 500 g ai/ha, visual injury, 0 to 100 scale (0 no effect, 100 complete control), approx. 10 d, read-out: Plant response rating, Velvetleaf
Summary of the method: as §2

CN1C[C@@H](c2ccc(C(F)(F)F)cc2)[C@H](C(=O)Nc2ccc(C(F)(F)F)nc2Cl)C1=O (racemic) [Compound 1542]
0%: pest or weed control at 15.625 g/ha ([1]; 15.625 g ai/ha, evaluated after 13 days (100=total damage to plant; 0=no damage to plant), read-out: Barnyardgrass damage rating) | pest or weed control at 62.5 g/ha ([1]; 62.5 g ai/ha, evaluated after 13 days, read-out: Barnyardgrass damage rating (100=total damage to plant; 0=no damage to plant)) | pest or weed control at 250 g/ha ([1]; 250 g ai/ha, evaluated after 13 days, read-out: damage to plant, Barnyardgrass (100=total damage to plant; 0=no damage to plant)) | plant injury at 15.625 g/ha (corn (Zea mays) [2]; 15.625 g ai/ha, evaluated after 13 days (100=total damage to plant; 0=no damage to plant), read-out: Corn damage rating) | plant injury at 62.5 g/ha (corn (Zea mays) [2]; 62.5 g ai/ha, evaluated after 13 days, read-out: Corn damage rating (100=total damage to plant; 0=no damage to plant)) | plant injury at 250 g/ha (corn (Zea mays) [2]; 250 g ai/ha, evaluated after 13 days, read-out: damage to plant, Corn (100=total damage to plant; 0=no damage to plant)) | pest or weed control at 15.625 g/ha ([3]; 15.625 g ai/ha, evaluated after 13 days (100=total damage to plant; 0=no damage to plant), read-out: Foxtail, Giant damage rating) | pest or weed control at 62.5 g/ha ([3]; 62.5 g ai/ha, evaluated after 13 days, read-out: Foxtail, Giant damage rating (100=total damage to plant; 0=no damage to plant)) | pest or weed control at 250 g/ha ([3]; 250 g ai/ha, evaluated after 13 days, read-out: damage to plant, Foxtail, Giant (100=total damage to plant; 0=no damage to plant)) | pest or weed control at 15.625 g/ha ([4]; 15.625 g ai/ha, evaluated after 13 days (100=total damage to plant; 0=no damage to plant), read-out: Morningglory, Ivy-leaved damage rating) | pest or weed control at 62.5 g/ha ([4]; 62.5 g ai/ha, evaluated after 13 days, read-out: Morningglory, Ivy-leaved damage rating (100=total damage to plant; 0=no damage to plant)) | pest or weed control at 250 g/ha ([4]; 250 g ai/ha, evaluated after 13 days, read-out: damage to plant, Morningglory, Ivy-leaved (100=total damage to plant; 0=no damage to plant)) | pest or weed control at 15.625 g/ha ([5]; 15.625 g ai/ha, evaluated after 13 days (100=total damage to plant; 0=no damage to plant), read-out: Pigweed, Redroot damage rating) | pest or weed control at 62.5 g/ha ([5]; 62.5 g ai/ha, evaluated after 13 days, read-out: Pigweed, Redroot damage rating (100=total damage to plant; 0=no damage to plant)) | pest or weed control at 250 g/ha ([5]; 250 g ai/ha, evaluated after 13 days, read-out: damage to plant, Pigweed, Redroot (100=total damage to plant; 0=no damage to plant)) | pest or weed control at 15.625 g/ha ([6]; 15.625 g ai/ha, evaluated after 13 days (100=total damage to plant; 0=no damage to plant), read-out: Velvetleaf damage rating) | pest or weed control at 62.5 g/ha ([6]; 62.5 g ai/ha, evaluated after 13 days, read-out: Velvetleaf damage rating (100=total damage to plant; 0=no damage to plant)) | pest or weed control at 250 g/ha ([6]; 250 g ai/ha, evaluated after 13 days, read-out: damage to plant, Velvetleaf (100=total damage to plant; 0=no damage to plant))

N#Cc1ccc(NC(=O)C2C(=O)NCC2c2ccccc2)cc1 (stereo not drawn) [Compound 1355]
0%: Corn plant response rating (crop injury, 0 = no effect, 100 = complete kill) at 500 g/ha (corn (Zea mays) [7]) | Corn plant response rating (crop injury, 0 = no effect, 100 = complete kill) at 125 g/ha (corn (Zea mays) [7]) | pest or weed control at 500 g/ha [8] | pest or weed control at 125 g/ha [8] | pest or weed control at 500 g/ha [9] | pest or weed control at 125 g/ha [9] | pest or weed control at 500 g/ha [10] | pest or weed control at 125 g/ha [10] | plant injury at 500 g/ha [11] | plant injury at 125 g/ha [11] | pest or weed control at 125 g/ha [12] | pest or weed control at 500 g/ha [12] | pest or weed control at 125 g/ha [13] | pest or weed control at 500 g/ha [13] | pest or weed control at 125 g/ha [14] | pest or weed control at 500 g/ha [14]

O=C1NCC(c2ccccc2)C1C(=O)Nc1cccnc1 (stereo not drawn) [Compound 1356]
0%: Corn plant response rating (crop injury, 0 = no effect, 100 = complete kill) at 500 g/ha (corn (Zea mays) [7]) | Corn plant response rating (crop injury, 0 = no effect, 100 = complete kill) at 125 g/ha (corn (Zea mays) [7]) | pest or weed control at 500 g/ha [8] | pest or weed control at 125 g/ha [8] | pest or weed control at 500 g/ha [9] | pest or weed control at 125 g/ha [9] | pest or weed control at 500 g/ha [10] | pest or weed control at 125 g/ha [10] | plant injury at 500 g/ha [11] | plant injury at 125 g/ha [11] | pest or weed control at 125 g/ha [12] | pest or weed control at 500 g/ha [12] | pest or weed control at 125 g/ha [13] | pest or weed control at 500 g/ha [13] | pest or weed control at 125 g/ha [14] | pest or weed control at 500 g/ha [14]

O=C1NCC(c2ccccc2)C1C(=O)Nc1ccccc1Oc1ccccc1 (stereo not drawn) [Compound 1357]
0%: Corn plant response rating (crop injury, 0 = no effect, 100 = complete kill) at 500 g/ha (corn (Zea mays) [7]) | Corn plant response rating (crop injury, 0 = no effect, 100 = complete kill) at 125 g/ha (corn (Zea mays) [7]) | pest or weed control at 500 g/ha [8] | pest or weed control at 125 g/ha [8] | pest or weed control at 500 g/ha [9] | pest or weed control at 125 g/ha [9] | pest or weed control at 500 g/ha [10] | pest or weed control at 125 g/ha [10] | plant injury at 500 g/ha [11] | plant injury at 125 g/ha [11] | pest or weed control at 125 g/ha [12] | pest or weed control at 500 g/ha [12] | pest or weed control at 125 g/ha [13] | pest or weed control at 500 g/ha [13] | pest or weed control at 125 g/ha [14] | pest or weed control at 500 g/ha [14]
